Where two headings read alike, the source gives them in different places. Peptide text beside a SMILES is read from it.
Columns and labels:
[1] = tested on: SaOS cells; test: cAMP production in SaOS cells, dose-response; type: cell-based
[2] = tested on: MC3T3-E1 cells; test: cAMP in MC3T3-E1 cells, dose-response; type: cell-based
Procedure: In the 1-30 scaffold, Gly, Ser, Leu, Asn, Gln, Trp, Glu, and Lys were substituted at position 29; Gly, Ser, Leu, Asn, Asp, Trp, and Lys were substituted at position 30; and Ser, Leu, Asn, Val, Trp, Glu, and Lys were substituted at position 31. […] These peptides were tested for cAMP activity in MC3T3-E1 cells.

[3] = target: T1, human PTHR, G protein-coupled conformation (RG) (Homo sapiens, UniProt Q03431); test: Competition binding to RG conformation of hPTHR (COS-7 membranes, GαsND, 125I-[Aib1,3,M]PTH(1-15) tracer)
T1 construct: expressed in transfected cells; host or cells: COS-7, transient (Fugene-6); membranes
T1 sequence (Q03431 27-593): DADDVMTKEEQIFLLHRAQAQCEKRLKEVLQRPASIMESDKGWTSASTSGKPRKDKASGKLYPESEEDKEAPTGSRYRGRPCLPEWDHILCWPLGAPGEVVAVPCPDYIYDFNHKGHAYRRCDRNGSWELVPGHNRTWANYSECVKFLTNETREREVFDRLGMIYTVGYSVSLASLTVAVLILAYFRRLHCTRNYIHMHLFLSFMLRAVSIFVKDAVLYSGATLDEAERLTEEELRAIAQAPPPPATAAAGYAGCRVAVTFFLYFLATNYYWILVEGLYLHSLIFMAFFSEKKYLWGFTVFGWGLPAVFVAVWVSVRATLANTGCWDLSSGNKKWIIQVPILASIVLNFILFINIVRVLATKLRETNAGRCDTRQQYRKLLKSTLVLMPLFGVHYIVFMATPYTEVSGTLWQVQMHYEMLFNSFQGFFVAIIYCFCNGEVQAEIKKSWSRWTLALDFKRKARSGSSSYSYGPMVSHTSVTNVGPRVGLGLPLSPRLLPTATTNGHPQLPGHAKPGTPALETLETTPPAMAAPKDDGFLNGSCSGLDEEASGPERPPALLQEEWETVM

[4] = target: T2, human PTHR, G protein-uncoupled conformation (R^0) (Homo sapiens, UniProt Q03431); test: Competition binding to R0 conformation of hPTHR (COS-7 membranes, GTPγS, 125I-PTH(1-34) tracer); settings: for R0/RG selectivity: hPTHR
T2 construct: expressed in transfected cells; host or cells: COS-7, transient (Fugene-6)
T2 sequence (Q03431 27-593): T1 sequence (Q03431 27-593)
Outline: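 Membranes from hPTHR-transfected COS-7 cells (20-100 μg/mL protein) incubated 90 min with radioligand (~150,000 cpm/ml) and unlabeled ligands, then filtered. Specific binding expressed as % of binding without competitor.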

[5] = tested on: LLCPK1-B64 cells or SaOS-2 cells; test: cAMP screen of substituted PTHrP(1-28) analogs (% parent); type: cell-based; settings: parent PTHrP(1-28)NH
Outline: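 LLCPK1-B64 or SaOS-2 cells exposed to peptide analogs at 3×10^−9M with IBMX for 30 minutes at room temperature, then cAMP measured. Each analog's response expressed as percentage of that for parent PTHrP(1-28).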

[6] = target: T3, human PTH1 receptor (Homo sapiens, UniProt Q03431); test: cAMP signaling dose-response in HKRK-B7 cells; type: cell-based; settings: 15 min, 37° C., IBMX
T3 construct: expressed in transfected cells
T3 sequence (Q03431 27-593): T1 sequence (Q03431 27-593)
Procedure: In the cAMP experiments of FIG. 14, HKRK-B7 were seeded in 96 well plates at 1×10^5 cells/well and incubated overnight. On the following day, the cells were washed once with […] of binding buffer (50 mM Tris-HCl, pH 7.7, 100 mM NaCl, 5 mM KCl, 2 mM CaCl2, 5% heat-inactivated horse serum, 0.5% heat-inactivated fetal bovine serum), followed by addition of 100 μl cAMP assay buffer (DMEM, 2 mM IBMX, 1 mg/ml bovine serum albumin, 35 mM Hepes-NaOH, pH 7.4) on ice. […] After removing the medium, the plates were placed on powdered dry ice to freeze the cells and then removed from dry ice. The cells were thawed with 50 μl of 50 mM HCl and frozen again on dry ice. The level of intracellular cAMP was measured with a commercially available cAMP EIA kit (Biotrack cAMP EIA system, GE Healthcare).
HKRK-B, which are LLC-PK1 cells over-expressing human PTH1 receptor at levels of 9.5×10^5 per cell were used in the cAMP signaling assay. The cells were cultured at 37° C. in a humidified atmosphere containing 5% CO2 in Dulbecco's modified Eagle's medium (DMEM), supplemented with 10% fetal bovine serum (Hyclone), 100 units/ml penicillin G, and 100 μg/ml streptomycin sulfate (Invitrogen Corp). […] All peptides were dissolved at 1 mM in 10 mM acetic acid, and stored at −80° C. The cAMP stimulation assay was performed as described above for HKRK-B7 cells. […] Cells were treated for 15 minutes at 37° C. with varying concentrations of ligands in the presence of IBMX.

[7] = Plasma cAMP in C57BL/6 mice after intravenous injection; type: in vivo; settings: i.v. (Example 4)
Procedure: Blood was withdrawn 10 minutes after injection, and the plasma level of cAMP was measured by RIA.
Blood was withdrawn 10 minutes after injection and plasma level of cAMP was measured by RIA.

[8] = Blood ionized calcium in C57BL/6 mice after intravenous injection; type: in vivo; settings: 5 nmol/kg i.v.
Procedure: FIGS. 29A and 29B are graphs showing the effect of R^0 and RG selective PTH analogs on plasma cAMP and calcium in mice. FIGS. 29A and 29B show plasma cAMP concentrations in mice (C57BL/6, males, 3 months) that were administered either vehicle, rPTH(1-34) (SEQ ID NO:130), M-PTH(1-34) (M=A^1,Aib^3,Q^10,Har^11,A^12,W^14,R^19) (SEQ ID NO:12), or E^18,A^22,L^25,K^26-(EALK)-PTHrP(1-30) (SEQ ID NO:90) (5 nmol/kg; n=7 for cAMP, n=4 for calcium) intravenously. […] In the calcium experiment, blood was withdrawn before, and 1, 2, 4 and 6 hours after injection, and ionized calcium was measured using a Ca^++/pH analyzer.
We also characterized the effects of the EALK-PTHrP(1-30) peptide on cAMP production. Three month old male C57BL/6 mice were intravenously injected with either vehicle, rPTH(1-34), M-PTH(1-34) (M=A^1,Aib^3,Q^10,Har^11,A^12,W^14,R^19) or E^18,A^22,L^25,K^26-(EALK)-PTHrP(1-30) (5 nmol/kg). In the cAMP experiment (FIG. 29A), blood was withdrawn 10 minutes after injection and plasma level of cAMP was measured by RIA. In the calcium experiment (FIG. 29B), blood was withdrawn prior to injection and 1, 2, 4, and 6 hours after injection. Ionized calcium was measured using a Ca^++/pH analyzer.

[9] = Bone turnover markers (PINP, osteocalcin, CTX) in mice, daily treatment; type: in vivo; settings: 5 nmol/kg i.v. daily, days 6 and 13
Procedure: FIGS. 30A-30F are graphs showing the effects of PTH analogs on plasma bone markers in mice. Mice (C57BL/6, males, 3 months) were intravenously injected daily with either vehicle, rPTH(1-34) (SEQ ID NO:130), M-PTH(1-34) (SEQ ID NO:12), or (EALK)-PTHrP(1-30) (SEQ ID NO:90) (5 nmol/kg; n=7 group) for 14 days. Markers of bone turnover (PINP, CTX and osteocalcin) were assessed by ELISA in blood at day 6 (FIGS. 30A, 30C, and 30E, respectively) and 13 (FIGS. 30B, 30D, and 30F, respectively).
A second set of experiments was performed in which mice received 5 nmol/kg intravenous daily treatment with rPTH(1-34), M-PTH(1-34), or EALK-PTHrP(1-30) for 14 days. Blood samples were taken at days 6 and 13, and markers of bone turnover (PINP, osteocalcin and CTX) were assessed by ELISA.

[10] = Bone structural parameters after two-week daily treatment in mice (Piximus, microCT); type: in vivo
Procedure: FIG. 31 is a set of images showing the effects of two-week daily treatment of R^0 and RG ligands on trabecular and cortical bone structure in mice. Mice (C57BL/6, males, 3 months) were treated (i.v.) with either vehicle, rPTH(1-34) (SEQ ID NO:130), M-PTH(1-34) (SEQ ID NO:12), or E^18,A^22,L^25,K^26 (EALK)PTHrP(1-30) (SEQ ID NO:90) (5 nmol/kg; n=7 group), daily for 14 days, and femurs were analyzed by μCT.
As described above, mice were treated intravenously) with either vehicle, rPTH(1-34), M-PTH(1-34), or EALK-PTHrP(1-30) daily for 14 days.

[11] = Table 2, read-out: SaOS camp EC50
[12] = Table 2, read-out: MC3T3-E1 cAMP EC50
[13] = Table 3, read-out: dose-response cAMP in MC3T3-E1 (EC50)
[14] = Table 2, read-out: RG binding affinity hPTHR IC50
[15] = Piximus, mice, 5 nmol/kg i.v. daily 14 days

## CC[C@H](C)[C@H](NC(=O)[C@H](CC(C)C)NC(=O)[C@H](CCCCN)NC(=O)[C@H](CC(C)C)NC(=O)[C@H](CC(C)C)NC(=O)[C@H](Cc1ccccc1)NC(=O)[C@H](C)NC(=O)[C@H](CCCNC(=N)N)NC(=O)[C@H](CCCNC(=N)N)NC(=O)[C@H](CCCNC(=N)N)NC(=O)[C@H](C)NC(=O)[C@H](CC(=O)O)NC(=O)[C@H](CCC(N)=O)NC(=O)[C@@H](NC(=O)[C@H](CO)NC(=O)[C@H](CCCCN)NC(=O)CNC(=O)[C@H](CCCCN)NC(=O)[C@H](CC(=O)O)NC(=O)[C@H](Cc1c[nH]cn1)NC(=O)[C@H](CC(C)C)NC(=O)[C@H](CC(C)C)NC(=O)[C@H](CCC(N)=O)NC(=O)[C@H](Cc1c[nH]cn1)NC(=O)[C@H](CCC(=O)O)NC(=O)[C@H](CO)NC(=O)[C@@H](NC(=O)[C@H](C)N)C(C)C)[C@@H](C)CC)C(N)=O [A18, 22, L25, K26-PTHrP(1-28)NH, A18,22,L25,K26-PTHrP(1-28)] (H-AVSEHQLLHDKGKSIQDARRRAFLLKLI-NH2; N-terminus assumed)
[1]
  cAMP-inducing activity compared with parent, in words: Marked enhancements of cAMP-inducing activity
[1]; [11]
  EC50: 0.002 nM
[1]; Table 3, read-out: dose-response cAMP in SaOS (EC50)
  EC50: 0.002 nM
[2]; [12]
  EC50: 0.054 nM
[2]; [13]
  EC50: 0.054 nM
[3]
  cAMP potency and RG binding affinity compared with PTH(1-34), in words: cAMP potency and RG binding affinity that is greater than that of PTH(1-34)
[3]; [14]
  IC50: 0.04 nM
[4]; Table 2
  R0/RG selectivity: 6971
[4]; Table 2, read-out: R^0 binding affinity hPTHR IC50
  IC50: 310 nM
[5]
  screen cAMP (% parent): 305 % parent
[6]
  cAMP in HKRK-B7 cells Max: 56.4 pm/well
[7]
  plasma cAMP 10 minutes after injection, in words: Marked enhancements

## CC[C@H](C)[C@H](NC(=O)[C@H](CC(C)C)NC(=O)[C@H](CCCCN)NC(=O)[C@H](CC(C)C)NC(=O)[C@H](CC(C)C)NC(=O)[C@H](Cc1ccccc1)NC(=O)[C@H](C)NC(=O)[C@H](CCCNC(=N)N)NC(=O)[C@H](CCCNC(=N)N)NC(=O)[C@H](CCCNC(=N)N)NC(=O)[C@H](CCC(=O)O)NC(=O)[C@H](CC(=O)O)NC(=O)[C@H](CCC(N)=O)NC(=O)[C@@H](NC(=O)[C@H](CO)NC(=O)[C@H](CCCCN)NC(=O)CNC(=O)[C@H](CCCCN)NC(=O)[C@H](CC(=O)O)NC(=O)[C@H](Cc1c[nH]cn1)NC(=O)[C@H](CC(C)C)NC(=O)[C@H](CC(C)C)NC(=O)[C@H](CCC(N)=O)NC(=O)[C@H](Cc1c[nH]cn1)NC(=O)[C@H](CCC(=O)O)NC(=O)[C@H](CO)NC(=O)[C@@H](NC(=O)[C@H](C)N)C(C)C)[C@@H](C)CC)C(=O)N[C@@H](C)C(=O)N[C@@H](CCC(=O)O)C(N)=O [E18, A22, L25, K26-PTHrP(1-30)NH, E18,A22,L25,K26-PTHrP(1-30)] (H-AVSEHQLLHDKGKSIQDERRRAFLLKLIAE-NH2; N-terminus assumed)
[1]; [11]
  EC50: 0.063 nM
[2]; [12]
  EC50: 0.059 nM
[2]; [13]
  EC50: 0.059 nM
[3]; [14]
  IC50: 0.08 nM
[3]; Table 4, human PTH1 receptor, read-out: RG binding IC50
  IC50: 0.08 nM
[4]; Table 2
  R0/RG selectivity: 11169
[4]; Table 4, human PTH1 receptor, read-out: R0 binding IC50
  IC50: 945 nM
[4]; human PTH receptor on COS-7 cell membranes
  R0/RG ratio: 11813
[8]
  ionized calcium response, in words: similar, if not lower, than that of PTH(1-34)
[9]
  effect on bone turnover markers, in words: increased bone formation markers, with relatively smaller effects on the resorption marker
[10]; [15]
  Lumbar Spine BMD: 0.0464 ± 0.0002 g/cm^2
  Total Femur BMD: 0.620 ± 0.0003 g/cm^2
[10]; mice, 5 nmol/kg i.v. daily 14 days
  effect on trabecular/cortical bone and BMD, in words: increased cortical bone thickness with significance in the distal femur
[10]; microCT distal femur
  Conn-Dens.: 117 ± 9 1/mm^3
  Cort Th.: 238 ± 9 μm
  Tb · N: 4.13 ± 0.16 1/mm
  Tb · Th: 57.8 ± 2.1 μm
  TbSp: 238 ± 10 μm
  TrabecularBV/TV: 16.5 ± 1.3%
[10]; microCT mid femur
  BA: 0.821 ± 0.027 mm^2
  BA/TA: 40.3 ± 0.6%
  Cort Th.: 176 ± 4 μm
  MA: 1.21 ± 0.03 mm^2
  TA: 2.03 ± 0.06 mm^2

Source: US9057727B2, “Screening methods using G-protein coupled receptors and related compositions” (The General Hospital Corporation, priority 2007, dated 2015)
